In EPA's ToxValDB 9.5 (doi:10.2903/j.efsa.2005.26r):
Converted amounts (≈) assume the structure as drawn.

Experiments:
Apis mellifera = settings: acute; duration: 48 hours; oral; unspecified; mortality
Daphnia magna = settings: chronic/long-term; duration: 21 days; reproduction
Oncorhynchus mykiss = settings: acute; duration: 96 hours; mortality
Pimephales promelas = settings: chronic/long-term; duration: 28 days
Tagia sp. = settings: acute; duration: 14 days; mortality
Aphidius rhopalosiphi = assay: LR50; higher = less toxic; settings: acute; duration: 48 hours; mortality

SMILES: CNC(=O)ON=C(SC)C(=O)N(C)C [Oxamyl]
- LD50 (Anas platyrhynchos; acute, oral, unspecified, mortality): 3.16 mg/kg
- NOEC (Anas platyrhynchos; reproductive): 50 mg/kg
- LC50 (Anas platyrhynchos; short-term, oral, feed, mortality): 340 mg/kg
- LD50 (Apis mellifera): 0.38 µg/piece
- LC50 (Colinus virginianus; acute, oral, diet, mortality): 766 mg/kg
- LD50 (Colinus virginianus; acute, oral, mortality): 9.5 mg/kg
- NOEC (Colinus virginianus; reproduction developmental): 10 mg/kg-day
- NOEC (Daphnia magna): 0.0268 mg/L
- LC50 (Oncorhynchus mykiss): 3.13 µg/mL (≈ 14.3 µM)
- NOEC (Pimephales promelas): 0.5 mg/L
- NOAEL (Rattus norvegicus; acute, oral, gavage, M/F, clinical signs): 0.1 mg/kg-day
- LD50 (Rattus norvegicus; acute, oral, mortality): 2.5 mg/kg
- NOEC (Rattus norvegicus; reproduction developmental): 1.43 mg/kg-day
- LC50 (Tagia sp.): 112 mg/kg
- LR50 (Aphidius rhopalosiphi): 0.03 g/ha
